The subject of one data set is obese zucker rats. The conditions noted are these: cited from earlier work.
`CC1=Nc2ccc(Cl)cc2S(=O)(=O)N1` [diazoxide, 7-chloro-3-methyl-2H-1,2,4-benzothiadiazine 1,1-dioxide]: the glucose tolerance result is listed as “improve glucose tolerance”, the insulin receptor binding entry was “increase insulin receptor binding”, the insulin secretion result is reported as “decrease insulin secretion” and the weight gain entry is reported as “decrease weight gain”.

System in the next data set: not given
Settings: not given
Take `CC(NC(Nc1cc(C(F)(F)F)cc(C(F)(F)F)c1)=C(C#N)S(=O)(=O)c1ccc(Cl)cc1)C(C)(C)C` (centres unmarked) [Example 1, 3-[3,5-bis(trifluoromethyl)phenylamino]-2-(4-chlorophenylsulfonyl)-3-(1,2,2-trimethylpropylamino)-2-propenenitrile]: the melting point was in the range of 155.5 to 158.5 °C.
In turn, `N#CC(=C(Nc1cc(C(F)(F)F)cc(C(F)(F)F)c1)NC1CCCC1)S(=O)(=O)c1ccc(Cl)cc1` [Example 2, 3-[3,5-Bis(trifluoromethyl)phenylamino]-2-(4-chlorophenylsulfonyl)-3-cyclopentylamino2-propenenitrile] came in with a melting point of 199 to 200 °C.
Same read-out and setting: under `CC(C)NC(Nc1cc(C(F)(F)F)cc(C(F)(F)F)c1)=C(C#N)S(=O)(=O)c1ccc(Cl)cc1` [Example 3, 3-[3,5-Bis(trifluoromethyl)phenylamino]-2-(4-chlorophenylsulfonyl)-3-isopropylamino-2-propenenitrile] stands 197 to 198.5 °C; under `N#CC(=C(Nc1cc(C(F)(F)F)cc(C(F)(F)F)c1)NC1CCC1)S(=O)(=O)c1ccc(Cl)cc1` [Example 4, 3-[3,5-Bis(trifluoromethyl)phenylamino]-2-(4-chlorophenylsulfonyl)-3-cyclobutylamino-2-propenenitrile], 190.5 to 193 °C.
Turning to `CCCNC(Nc1cc(C(F)(F)F)cc(C(F)(F)F)c1)=C(C#N)S(=O)(=O)c1ccc(Cl)cc1` [Example 5, 3-[3,5-Bis(trifluoromethyl)phenylamino]-2-(4-chlorophenylsulfonyl)-3-propylamino2-propenenitrile], the melting point lay in the range of 196.5 to 198.5 °C.
Regarding `CC(NC(Nc1cc(Cl)cc(Cl)c1)=C(C#N)S(=O)(=O)c1ccc(Cl)cc1)C(C)(C)C` (centres unmarked) [Example 7, 2-(4-Chlorophenylsulfonyl)-3-(3,5-dichlorophenylamino)-3-(1,2,2-trimethylpropylamino)-2-propenenitrile], the melting point was 163 to 169 °C.
The compound `CC(NC(Nc1cc(C(F)(F)F)cc(C(F)(F)F)c1)=C(C#N)S(C)(=O)=O)C(C)(C)C` (centres unmarked) [Example 9, 3-(3,5-Bis(trifluoromethyl)phenylamino)-2-methylsulfonyl-3-(1,2,2-trimethylpropylamino)-propenenitrile] yielded a melting point of 184.5 to 188.5 °C.
In turn, `COc1cc(NC(NC(C)C(C)(C)C)=C(C#N)S(=O)(=O)c2ccc(Cl)cc2)cc(OC)c1` (centres unmarked) [Example 10, 2-(4-Chlorophenylsulfonyl)-3-(3,5-dimethoxyphenylamino)-3-(1,2,2-trimethylpropylamino)-2-propenenitrile] displayed a melting point of 177.5 to 179 °C.
The compound `CC(NC(=C(C#N)S(=O)(=O)c1ccc(Cl)cc1)N(C)c1cc(C(F)(F)F)cc(C(F)(F)F)c1)C(C)(C)C` (centres unmarked) [Example 11, 3-[N-(3,5-bis(trifluoromethyl)phenyl)-N-methylamino]-2-(4-chlorophenylsulfonyl)-3-(1,2,2-trimethylpropylamino)-2-propenenitrile] yielded a melting point of 151.5 to 154 °C.
On the same count and under the same terms, under `CCC(C)(C)NC(Nc1cc(C(F)(F)F)cc(C(F)(F)F)c1)=C(C#N)S(=O)(=O)c1ccc(Cl)cc1` [Example 17, 3-[3,5-Bis(trifluoromethyl)phenylamino]-2-(4-chlorophenylsulfonyl)-3-(1,1-dimethylpropylamino)-2-propenenitrile] stands 205 to 207 °C; under `C[C@@H](NC(Nc1cc(C(F)(F)F)cc(C(F)(F)F)c1)=C(C#N)S(=O)(=O)c1ccc(Cl)cc1)C(C)(C)C` [Example 19, (R)-3-[3,5-bis(trifluoromethyl)phenylamino]-2-(4-chlorophenylsulfonyl)-3-(1,2,2-trimethylpropylamino)-2-propenenitrile], 164 to 165 °C; under `CC(C)NC(Nc1cc(C(F)(F)F)cc(C(F)(F)F)c1)=C(C#N)S(C)(=O)=O` [Example 20, 3-(3,5-Bis(trifluoromethyl)phenylamino)-3-isopropylamino-2-methylsulfonyl-propenenitrile], 188.5 to 191 °C.
Same read-out and setting: under `C[C@@H](NC(Nc1cc(C(F)(F)F)cc(C(F)(F)F)c1)=C(C#N)S(C)(=O)=O)C(C)(C)C` [Example 21, (R)-3-[3,5-bis(trifluoromethyl)phenylamino]-2-methanesulfonyl-3-(1,2,2-trimethylpropylamino)-2-propenenitrile] stands 181 to 181.5 °C; under `C[C@H](NC(Nc1cc(C(F)(F)F)cc(C(F)(F)F)c1)=C(C#N)S(C)(=O)=O)C(C)(C)C` [Example 22, (S)-3-[3,5-bis(trifluoromethyl)phenylamino]-2-methanesulfonyl-3-(1,2,2-trimethylpropylamino)-2-propenenitrile], 180.5 to 181.5 °C; under `CCC(C)(C)NC(Nc1cc(OC)cc(OC)c1)=C(C#N)S(=O)(=O)c1ccc(Cl)cc1` [Example 23, 2-(4-Chlorophenylsulfonyl)-3-(3,5-dimethoxyphenylamino)-3-(1,1-dimethylpropylamino)-2-propenenitrile], 189 to 190 °C.
As to `COc1cc(NC(NC2CCC2)=C(C#N)S(=O)(=O)c2ccc(Cl)cc2)cc(OC)c1` [Example 24, 2-(4-Chlorophenylsulfonyl)-3-(3,5-dimethoxyphenylamino)3cyclobutylamino-2-propenenitrile], the melting point lay within 163.5 to 164.5 °C.
`CCC(C)(C)NC(Nc1ccc2c(c1)OCO2)=C(C#N)S(=O)(=O)c1ccc(Cl)cc1` [Example 27, 3-(Benzo[1,3]dioxol-5-ylamino)-3-(1,1-dimethyl-propylamino)-2-(4-chloro-phenylsulfonyl)-propenenitrile] displayed a melting point of 169 to 170 °C.
On the same count and under the same terms, under `N#CC(=C(Nc1ccc2c(c1)OCO2)NC1CCC1)S(=O)(=O)c1ccc(Cl)cc1` [Example 28, 3-(Benzo[1,3]dioxol-5-ylamino)-3-cyclobutylamino-2-(4-chloro-phenylsulfonyl)-propenenitrile] stands 189.5 °C.
The same measure, in the same setting: the result for `CCC(C)NC(Nc1cc(Cl)cc(Cl)c1)=C(C#N)S(=O)(=O)c1ccc(Cl)cc1` (centres unmarked) [Example 31, 3-sec-Butylamino-2-(4-chlorophenylsulfonyl)-3-(3,5-dichlorophenylamino)-2-propenenitrile] reads 150 to 152 °C.
Consider `CC(NC(Nc1cc(F)cc(C(F)(F)F)c1)=C(C#N)S(C)(=O)=O)C(C)(C)C` (centres unmarked) [Example 33, 3-(3-Fluoro-5trifluoromethyl-phenylamino)-2-methylsulfonyl-3-(1,2,2-trimethylpropylamino)-propenenitrile], for which the melting point is 183 to 185 °C.
Take `CC(NC(Nc1ccc(Cl)cc1)=C(C#N)S(C)(=O)=O)C(C)(C)C` (centres unmarked) [Example 34, 3-(4-Chlorophenylamino)-2-methylsulfonyl-3-(1,2,2-trimethylpropylamino)-acrylonitrile]: the melting point fell in the range of 160.5 to 161.5 °C.
On the same count and under the same terms, the result for `CCC(C)(C)NC(Nc1ccc2ncsc2c1)=C(C#N)S(C)(=O)=O` [Example 35, 3-(Benzothiazol-6-ylamino)-3-(1,1-dimethyl-propylamino)-2-methylsulfonyl-propenenitrile] reads 112 to 114 °C; that for `CCC(C)(C)NC(Nc1ccc2c(c1)OCO2)=C(C#N)C(=O)C(C)(C)C` [Example 36, 3-(Benzo[1,3]dioxol-5-ylamino)-2-(2,2-dimethyl-propionyl)-3-(1,1-dimethyl-propylamino)-propenenitrile], 161 to 165 °C.

A further data set concerns BB-rats. The conditions noted are these: cited from earlier work.
Take `CC1=Nc2ccc(Cl)cc2S(=O)(=O)N1` [diazoxide, 7-chloro-3-methyl-2H-1,2,4-benzothiadiazine 1,1-dioxide]: the onset of diabetes entry is “delay the onset of diabetes”.

The target of a further data set is KATP-channels on pancreatic beta-cells (Homo sapiens, UniProt Q09428). Conditions: by activation of KATP-channels; cited from earlier work.
Sequence of KATP-channels on pancreatic beta-cells (Q09428 whole entry): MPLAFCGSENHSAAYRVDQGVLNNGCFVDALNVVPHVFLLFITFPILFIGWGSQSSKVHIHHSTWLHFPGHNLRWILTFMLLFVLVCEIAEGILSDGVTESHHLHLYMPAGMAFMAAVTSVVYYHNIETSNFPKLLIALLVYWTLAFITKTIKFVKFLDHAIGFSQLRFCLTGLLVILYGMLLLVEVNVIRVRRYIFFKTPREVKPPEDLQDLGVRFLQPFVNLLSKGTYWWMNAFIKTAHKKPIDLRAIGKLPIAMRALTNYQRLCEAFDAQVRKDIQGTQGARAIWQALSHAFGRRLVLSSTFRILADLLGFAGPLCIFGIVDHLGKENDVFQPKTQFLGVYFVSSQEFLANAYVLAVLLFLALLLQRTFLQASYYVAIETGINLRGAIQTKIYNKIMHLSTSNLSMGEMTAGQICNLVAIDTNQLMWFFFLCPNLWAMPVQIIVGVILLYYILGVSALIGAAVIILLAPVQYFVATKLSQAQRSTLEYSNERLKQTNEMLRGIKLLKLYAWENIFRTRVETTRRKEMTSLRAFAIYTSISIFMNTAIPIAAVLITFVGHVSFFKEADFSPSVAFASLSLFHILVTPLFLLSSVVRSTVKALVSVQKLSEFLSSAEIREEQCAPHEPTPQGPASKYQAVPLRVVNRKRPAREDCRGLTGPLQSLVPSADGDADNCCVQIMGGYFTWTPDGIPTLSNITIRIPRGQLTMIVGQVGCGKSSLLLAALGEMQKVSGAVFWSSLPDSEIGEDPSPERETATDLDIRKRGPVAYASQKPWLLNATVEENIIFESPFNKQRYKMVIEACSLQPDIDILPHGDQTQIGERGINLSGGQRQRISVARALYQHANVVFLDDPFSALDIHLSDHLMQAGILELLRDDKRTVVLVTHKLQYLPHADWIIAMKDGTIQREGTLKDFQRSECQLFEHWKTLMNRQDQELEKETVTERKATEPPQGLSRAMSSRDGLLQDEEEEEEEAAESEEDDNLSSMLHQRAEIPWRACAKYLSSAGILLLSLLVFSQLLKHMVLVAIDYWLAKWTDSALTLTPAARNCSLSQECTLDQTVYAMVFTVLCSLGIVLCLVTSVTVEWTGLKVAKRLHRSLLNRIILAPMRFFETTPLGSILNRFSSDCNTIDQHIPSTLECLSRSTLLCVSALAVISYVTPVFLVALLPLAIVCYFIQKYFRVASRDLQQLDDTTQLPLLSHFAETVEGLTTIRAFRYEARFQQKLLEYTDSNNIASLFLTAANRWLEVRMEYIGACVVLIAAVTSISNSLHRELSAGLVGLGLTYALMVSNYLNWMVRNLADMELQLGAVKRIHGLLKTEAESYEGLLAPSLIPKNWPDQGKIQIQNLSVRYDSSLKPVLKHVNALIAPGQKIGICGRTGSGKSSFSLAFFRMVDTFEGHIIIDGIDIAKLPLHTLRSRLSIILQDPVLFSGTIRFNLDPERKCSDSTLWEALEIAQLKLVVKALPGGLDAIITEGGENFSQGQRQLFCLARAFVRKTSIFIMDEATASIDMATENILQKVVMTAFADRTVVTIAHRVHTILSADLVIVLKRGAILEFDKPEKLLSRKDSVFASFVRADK
Sequence of KATP-channels on pancreatic beta-cells (Q14654 whole entry partner): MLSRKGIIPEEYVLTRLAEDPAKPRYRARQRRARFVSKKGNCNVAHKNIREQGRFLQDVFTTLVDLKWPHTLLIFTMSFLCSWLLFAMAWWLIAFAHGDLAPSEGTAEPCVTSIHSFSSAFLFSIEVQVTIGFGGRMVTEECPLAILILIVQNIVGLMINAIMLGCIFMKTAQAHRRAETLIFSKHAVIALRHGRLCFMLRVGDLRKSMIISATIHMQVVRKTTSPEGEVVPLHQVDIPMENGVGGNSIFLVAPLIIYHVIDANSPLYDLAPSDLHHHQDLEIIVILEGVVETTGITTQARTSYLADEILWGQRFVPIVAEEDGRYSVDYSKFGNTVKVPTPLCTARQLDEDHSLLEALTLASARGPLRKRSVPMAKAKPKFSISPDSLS
As to `CC1=Nc2ccc(Cl)cc2S(=O)(=O)N1` [diazoxide, 7-chloro-3-methyl-2H-1,2,4-benzothiadiazine 1,1-dioxide], the insulin release entry is reported as “inhibit insulin release”.

What is called melting point is the temperature of the solid-liquid transition.

The record behind these values is patent publication US6365609B1, “Substituted 3,3-diamino-2-propenenitriles, their preparation and use” (Novo Nordisk A/S, priority 1998, dated 2002).
